Test results reported in patent US20090099029A1, “Methods and substrates for conducting assays” (Invitrogen Corporation, priority 2005, published 2009).

How the values were obtained:
PRKCD = PRKCD (Homo sapiens, UniProt Q05655); test: Dose-response analysis on 10-well kinase microarray; assay type: biochemical; conditions: different inhibitor concentration in each well; substrate MBP, histone and casein
Description: (§1) The wash solution is then discarded.
(§2) Microarrays were prepared with 10 wells/slide, wherein the kinases EPHB3, FYN, and PRKCD and their substrate were immobilized in each well.

tyrosine kinases = test: Inhibitor specificity profiling on kinase microarray (fifty kinases, gamma-AT33P); conditions: inhibitor 100 μm; substrate mixture of MBP, histone and casein
Description: To coat slides with kinase substrate, the substrates are diluted to 10 ng/μL in 1×PBS and 180-200 μL of substrate solution are pipetted onto one slide, e.g., a glass slide, aldehyde treated slides (TeleChem International, Inc.), nitrocellulose-coated slides (Schleicher & Schuell), slides with an amino-silane surface (Corning). A second slide is then placed on top of the first slide so that the sides to be deposited with kinases face each other. Care should be taken that the liquid covers the entire slide and that there are no air bubbles. The slides are placed in a 50 mL conical tube, making sure they are laying flat and incubated at 4° C. for one hour to several days.
Subsequently, approximately 100 mL of PBST are added to the dish. The slides are then washed for one hour at 4° C. with shaking. The PBST is then discarded and the slides are gently rinsed with dH2O using a squirt bottle. After rinsing, the slides are placed into a slide boxes and centrifuged at 4000 rpm for one minute. The slides are then stored at 4° C. until printing with kinase.
1 mL of kinase assay buffer for every 12 glass slides to be probed is prepared. 6 μL of gamma-AT^33P (10 μCi/μL) are added to the assay buffer. The slides are placed in 50 mL conical tubes, laying flat, proteins facing up. 70 μL to 150 μL of the kinase assay buffer with gamma-AT^33P are added onto each slide. […]

EPHB3 = EPHB3 (Homo sapiens, UniProt P54753); test: Dose-response analysis on 10-well kinase microarray; assay type: biochemical; conditions: different inhibitor concentration in each well; substrate MBP, histone and casein
Description: as §1
Microarrays were prepared with 10 wells/slide, wherein the kinases EPHB3, FYN, and PRKCD and their substrate were immobilized in each well. The slide was coated with substrate essentially as described in Example I. Subsequently, a gasket with 10 openings was applied to the surface of the slide thereby creating 10 wells, i.e., the gasket provides the barriers between the wells. The accession numbers for the different kinases in the NCBI database are: for FYN: NM_002037; for PRKCD: NM_006254; and for EPHB3: NM_004443.

FYN [1] = target: T1, FYN (Homo sapiens, UniProt P06241); test: as above; assay type: biochemical; conditions: different inhibitor concentration in each well; substrate MBP, histone and casein
Description: as §1, §2

FYN [2] = target: T1, FYN; test: Global specificity profiling experiment, single point inhibition on kinase microarray; assay type: biochemical; conditions: substrates histone, casein, MBP, polyEY
Description: as §1
A mixture of generic kinase substrates (histone, casein, MBP, and polyEY) was used in the assay. The average of all signals from the same inhibitor or control experiment was calculated.
To expedite data analysis regarding the kinase families that are inhibited by a particular […], a graphical representation can be constructed of inhibition data for substrates in such a manner that phylogenetically related kinases can be spatially arranged on the graphical representation.

EPHB3, sequence (P54753 34-998): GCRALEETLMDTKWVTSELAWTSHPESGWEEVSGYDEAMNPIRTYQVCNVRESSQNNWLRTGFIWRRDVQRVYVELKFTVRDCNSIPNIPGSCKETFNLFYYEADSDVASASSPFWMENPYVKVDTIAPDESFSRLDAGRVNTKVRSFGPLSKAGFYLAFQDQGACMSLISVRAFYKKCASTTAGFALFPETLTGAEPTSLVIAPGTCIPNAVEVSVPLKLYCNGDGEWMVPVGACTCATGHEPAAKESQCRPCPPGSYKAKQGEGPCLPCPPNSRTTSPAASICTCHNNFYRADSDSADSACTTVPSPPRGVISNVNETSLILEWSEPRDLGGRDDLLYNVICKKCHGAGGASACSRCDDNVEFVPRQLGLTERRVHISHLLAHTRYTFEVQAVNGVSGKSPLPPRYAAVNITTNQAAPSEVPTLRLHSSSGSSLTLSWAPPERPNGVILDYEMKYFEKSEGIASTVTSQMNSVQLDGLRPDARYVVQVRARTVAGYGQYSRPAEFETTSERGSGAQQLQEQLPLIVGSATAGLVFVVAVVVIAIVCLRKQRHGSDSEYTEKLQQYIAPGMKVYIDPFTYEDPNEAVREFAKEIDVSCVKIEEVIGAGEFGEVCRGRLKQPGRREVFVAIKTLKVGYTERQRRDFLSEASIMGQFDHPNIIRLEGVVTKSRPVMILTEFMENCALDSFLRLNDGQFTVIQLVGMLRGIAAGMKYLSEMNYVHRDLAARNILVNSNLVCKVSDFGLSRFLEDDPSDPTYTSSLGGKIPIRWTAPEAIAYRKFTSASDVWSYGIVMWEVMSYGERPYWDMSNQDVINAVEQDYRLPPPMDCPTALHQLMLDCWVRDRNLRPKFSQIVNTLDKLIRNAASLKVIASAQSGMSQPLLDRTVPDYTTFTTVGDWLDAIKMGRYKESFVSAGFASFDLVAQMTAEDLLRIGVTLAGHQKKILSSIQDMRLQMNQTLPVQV
T1 sequence (P06241 whole entry): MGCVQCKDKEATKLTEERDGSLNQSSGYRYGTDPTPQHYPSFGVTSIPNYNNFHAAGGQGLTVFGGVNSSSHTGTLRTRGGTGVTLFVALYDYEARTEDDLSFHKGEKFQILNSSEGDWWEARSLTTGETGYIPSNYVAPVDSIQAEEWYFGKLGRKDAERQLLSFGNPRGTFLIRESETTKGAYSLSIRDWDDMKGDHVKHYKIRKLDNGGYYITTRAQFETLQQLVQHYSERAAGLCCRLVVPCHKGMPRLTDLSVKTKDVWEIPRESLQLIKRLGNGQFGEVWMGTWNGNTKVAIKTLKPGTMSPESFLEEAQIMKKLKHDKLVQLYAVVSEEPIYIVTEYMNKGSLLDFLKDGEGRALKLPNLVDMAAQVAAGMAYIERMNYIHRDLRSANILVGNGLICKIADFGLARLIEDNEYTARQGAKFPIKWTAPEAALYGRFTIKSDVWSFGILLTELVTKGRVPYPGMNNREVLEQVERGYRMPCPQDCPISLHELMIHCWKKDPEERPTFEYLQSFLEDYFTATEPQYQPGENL
PRKCD, sequence (Q05655 whole entry): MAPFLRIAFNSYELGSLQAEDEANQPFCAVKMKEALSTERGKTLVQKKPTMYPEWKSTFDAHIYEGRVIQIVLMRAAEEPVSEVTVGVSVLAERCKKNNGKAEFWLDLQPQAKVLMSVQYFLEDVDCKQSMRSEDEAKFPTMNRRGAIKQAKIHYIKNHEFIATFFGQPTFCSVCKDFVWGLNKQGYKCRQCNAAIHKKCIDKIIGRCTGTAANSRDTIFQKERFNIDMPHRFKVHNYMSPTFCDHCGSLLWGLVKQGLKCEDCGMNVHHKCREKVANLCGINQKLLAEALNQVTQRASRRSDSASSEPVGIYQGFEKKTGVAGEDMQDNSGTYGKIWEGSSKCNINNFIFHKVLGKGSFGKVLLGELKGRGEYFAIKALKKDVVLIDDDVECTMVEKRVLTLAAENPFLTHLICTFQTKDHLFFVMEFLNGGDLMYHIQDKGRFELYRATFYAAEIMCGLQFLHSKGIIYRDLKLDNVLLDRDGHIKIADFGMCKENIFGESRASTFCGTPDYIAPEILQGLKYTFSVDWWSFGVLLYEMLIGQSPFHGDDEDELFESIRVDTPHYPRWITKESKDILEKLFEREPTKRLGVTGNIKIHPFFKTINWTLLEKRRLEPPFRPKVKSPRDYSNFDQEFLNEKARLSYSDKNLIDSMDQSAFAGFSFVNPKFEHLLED

Row | SMILES | inhibition of PRKCD (dose-response) (PRKCD) | inhibition of tyrosine kinases (tyrosine kinases) | inhibition of EPHB3 (dose-response) (EPHB3) | inhibition of FYN (dose-response) (FYN [1]) | inhibition of FYN in global profiling (FYN [2])
1 | CC(C)(C)n1nc(-c2ccc(Cl)cc2)c2c(N)ncnc21 [PP2] | not | strongly inhibited | strongly inhibits |  | 
2 | CN[C@@H]1C[C@H]2O[C@@](C)([C@@H]1OC)n1c3ccccc3c3c4c(c5c6ccccc6n2c5c31)C(=O)NC4 [Staurosporine] |  |  | not | strongly inhibits | inhibited
